Assay type in all cases: biochemical
Assay [1] deals with T1, PI3Kβ (Homo sapiens, UniProt P42338).
T1 construct: p110β(2-1070)-His; made in house; host or cells: baculovirus, Tn5 insect cells
Briefly: PI3K KinaseGlo assay, PI3Kβ. How it is done: PI3K KinaseGlo assay: […] of compound dilutions were dispensed onto black 384-well low volume Non Binding Styrene (NBS) plates (Costar Cat. No. NBS#3676). L-a-phosphatidylinositol (PI), provided as 10 mg/ml solution in methanol, was transferred into a glass tube and dried under nitrogen beam. It was then resuspended in 3% OctylGlucoside (OG) by vortexing and stored at 4° C. The KinaseGlo Luminescent Kinase Assay (Promega, Madison/WI, USA) is a homogeneous HTS method of measuring kinase activity by quantifying the amount of ATP remaining in solution following a kinase reaction.
5 μL of a mix of PI/OG with the PI3K subtype were added (Table 1). Kinase reactions were started by addition of 5 μl of ATP-mix containing in a final volume 10 μL 10 mM TRIS-HCl pH 7.5, 3 mM MgCl2, 50 mM NaCl, 0.05% CHAPS, 1 mM DTT and 1 μM ATP, and occurred at room temperature. […] The standard was used as a reference compound and included in all assay plates in the form of 16 dilution points in duplicate.
The PI3Kα, PI3Kβ and PI3Kδ constructs are fusion of p85α iSH2 domain and the respective p110 isoforms. The p85α fragment and p110 isoform genes were generated by PCR from first strand cDNA generated by RT-PCR from commercial RNA from placenta, testis and brain as described below. The PI3Kγ construct was obtained from Roger Williams lab, MRC Laboratory of Molecular Biology, Cambridge, UK (November, 2003) and is described (Pacold, Michael E.; Suire, Sabine; Perisic, Olga; Lara-Gonzalez, Samuel; Davis, Colin T.; Walker, Edward H.; Hawkins, Phillip T.; Stephens, Len; Eccleston, John F.; Williams, Roger L. Crystal structure and functional analysis of Ras binding to its effector phosphoinositide 3-kinase gamma. Cell (2000), 103(6), 931-943).
BV949: PCR products for the inter SH2 domain (iSH2) of the p85 PI3Kα, PI13Kβ and PI3Kδ subunit and for the full-length p110β subunit were generated and fused by overlapping PCR. […] The p11013 fragment was obtained by PCR using as template a p110β clone (from unknown source that was sequence verified) using primers gwG130-p04 (5′-[…]-[…]-3′) (SEQ ID NO: 9) which contains linker sequences and the 5′ end of p110β and gwG130-p06 (5′-[…]-[…]-3′) (SEQ ID NO: 10) which contains sequences of the 3′ end of p110-β fused to a Histidine tag. […] This final product was recombined in a Gateway (Invitrogen) […] into the donor vector pDONR201 (Invitrogen) to generate the ORF253 entry clone. This clone was verified by sequencing and used in a Gateway LR reaction (Invitrogen) to transfer the insert into the Gateway adapted pBlueBac4.5 (Invitrogen) vector for generation of the baculovirus expression vector LR280.
(§1) PI3Kα, PI3Kβ and PI3Kγ were purified in two chromatographic steps: immobilized metal affinity chromatography (IMAC) on a Ni sepharose resin (GE Healthcare) and gel filtration utilizing a Superdex 200 26/60 column (GE Healthcare). All buffers were chilled to 4° C. and lysis was performed chilled on ice. Column fractionation was performed at room temperature. All buffers used to purify PI3Kβ contained 0.05% Triton X100 in addition to what is described below.
The lysate was centrifuged at 45,000 g for 30 minutes, and the supernatant was loaded onto a pre-equilibrated IMAC column (3 mL resin/100 mL lysate). […] Protein was eluted with 20 mM Tris-Cl, pH 7.5, 0.5 M NaCl, 5% glycerol, 250 mM imidazole, 1 mM NaF, 0.1 μg/mL OAA, 5 mM BME, 1× Complete protease inhibitor cocktail—EDTA-free. Pertinent fractions were analyzed by SDS-PAGE and pooled accordingly. The protein was further purified by gel filtration on a Superdex 200 26/60 column equilibrated in 20 mM Tris-Cl, pH 7.5, 0.5 M NaCl, 5% glycerol, 1 mM NaF, 5 mM DTT, 1× Complete protease inhibitor cocktail—EDTA-free. Pertinent fractions were analyzed by SDS-PAGE and pooled accordingly.
(Kinase-Glo measures the ATP left after a reaction by luminescence.)

Assay [2] deals with T2, PI3Kγ (Homo sapiens, UniProt P48736, Q459R).
T2 construct: p110γ(Δ143-[Met144-1102])-His; made in house; host or cells: Tn5 insect cells; construct from Roger Williams lab, MRC LMB
T2 sequence (P48736 with tags, fused parts or gaps Q459R): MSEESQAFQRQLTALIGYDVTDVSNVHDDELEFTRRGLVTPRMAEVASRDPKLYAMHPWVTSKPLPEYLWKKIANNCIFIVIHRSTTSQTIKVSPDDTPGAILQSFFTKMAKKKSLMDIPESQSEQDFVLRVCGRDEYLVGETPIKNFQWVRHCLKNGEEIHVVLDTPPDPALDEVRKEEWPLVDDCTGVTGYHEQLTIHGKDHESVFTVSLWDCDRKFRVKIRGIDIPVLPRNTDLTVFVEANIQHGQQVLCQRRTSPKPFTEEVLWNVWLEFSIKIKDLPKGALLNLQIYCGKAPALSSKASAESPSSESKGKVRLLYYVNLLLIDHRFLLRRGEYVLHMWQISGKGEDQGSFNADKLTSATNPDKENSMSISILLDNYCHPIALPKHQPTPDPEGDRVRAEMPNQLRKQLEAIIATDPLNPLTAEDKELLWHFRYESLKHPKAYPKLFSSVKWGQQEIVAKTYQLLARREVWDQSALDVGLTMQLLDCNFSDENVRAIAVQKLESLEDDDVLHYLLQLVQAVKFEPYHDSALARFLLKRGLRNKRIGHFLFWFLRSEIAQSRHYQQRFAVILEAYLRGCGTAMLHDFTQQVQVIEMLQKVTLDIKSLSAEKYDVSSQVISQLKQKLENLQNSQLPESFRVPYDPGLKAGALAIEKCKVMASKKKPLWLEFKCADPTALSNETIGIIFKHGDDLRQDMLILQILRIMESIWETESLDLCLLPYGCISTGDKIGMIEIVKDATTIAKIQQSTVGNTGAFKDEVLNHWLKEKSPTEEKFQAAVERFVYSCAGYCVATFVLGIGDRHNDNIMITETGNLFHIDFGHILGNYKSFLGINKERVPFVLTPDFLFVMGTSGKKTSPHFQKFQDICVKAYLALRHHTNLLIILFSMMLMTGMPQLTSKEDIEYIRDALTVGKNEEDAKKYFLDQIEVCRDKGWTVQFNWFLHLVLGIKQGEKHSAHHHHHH
Briefly: PI3K KinaseGlo assay, PI3Kγ. The settings on record: 150 nM enzyme, 1 μM ATP, 90 mins, room temperature, read-out: PI3Kg/IC50. How it is done: L-a-phosphatidylinositol (PI), provided as 10 mg/ml solution in methanol, was transferred into a glass tube and dried under nitrogen beam. It was then resuspended in 3% OctylGlucoside (OG) by vortexing and stored at 4° C. The KinaseGlo Luminescent Kinase Assay (Promega, Madison/WI, USA) is a homogeneous HTS method of measuring kinase activity by quantifying the amount of ATP remaining in solution following a kinase reaction.
5 μL of a mix of PI/OG with the PI3K subtype were added (Table 1). Kinase reactions were started by addition of 5 μl of ATP-mix containing in a final volume 10 μL 10 mM TRIS-HCl pH 7.5, 3 mM MgCl2, 50 mM NaCl, 0.05% CHAPS, 1 mM DTT and 1 μM ATP, and occurred at room temperature. […] The standard was used as a reference compound and included in all assay plates in the form of 16 dilution points in duplicate. […]
as §1
The lysate was centrifuged at 45,000 g for 30 minutes, and the supernatant was loaded onto a pre-equilibrated IMAC column (3 mL resin/100 mL lysate). […] Protein was eluted with 20 mM Tris-Cl, pH 7.5, 0.5 M NaCl, 5% glycerol, 250 mM imidazole, 1 mM NaF, 0.1 μg/mL OAA, 5 mM BME, 1× Complete protease inhibitor cocktail—EDTA-free. Pertinent fractions were analyzed by SDS-PAGE and pooled accordingly. The protein was further purified by gel filtration on a Superdex 200 26/60 column equilibrated in 20 mM Tris-Cl, pH 7.5, 0.5 M NaCl, 5% glycerol, 1 mM NaF, 5 mM DTT, 1× Complete protease inhibitor cocktail—EDTA-free. Pertinent fractions were analyzed by SDS-PAGE and pooled accordingly. An equal volume of Dialysis Buffer (20 mM Tris-Cl, pH 7.5, 500 mM NaCl, 50% glycerol, 5 mM NaF, 5 mM DTT) was added to the pool and than dialyzed against Dialysis Buffer two changes (one change overnight). Protein was stored at −20° C.

Assay [3] deals with T3, PI3Kδ (Homo sapiens, UniProt O00329).
T3 construct: p85iSH2(461-568)-GGGGGG-p110δ(2-1044)-His; made in house; host or cells: baculovirus, Tn5 insect cells
T3 sequence (O00329 with tags, fused parts or gaps): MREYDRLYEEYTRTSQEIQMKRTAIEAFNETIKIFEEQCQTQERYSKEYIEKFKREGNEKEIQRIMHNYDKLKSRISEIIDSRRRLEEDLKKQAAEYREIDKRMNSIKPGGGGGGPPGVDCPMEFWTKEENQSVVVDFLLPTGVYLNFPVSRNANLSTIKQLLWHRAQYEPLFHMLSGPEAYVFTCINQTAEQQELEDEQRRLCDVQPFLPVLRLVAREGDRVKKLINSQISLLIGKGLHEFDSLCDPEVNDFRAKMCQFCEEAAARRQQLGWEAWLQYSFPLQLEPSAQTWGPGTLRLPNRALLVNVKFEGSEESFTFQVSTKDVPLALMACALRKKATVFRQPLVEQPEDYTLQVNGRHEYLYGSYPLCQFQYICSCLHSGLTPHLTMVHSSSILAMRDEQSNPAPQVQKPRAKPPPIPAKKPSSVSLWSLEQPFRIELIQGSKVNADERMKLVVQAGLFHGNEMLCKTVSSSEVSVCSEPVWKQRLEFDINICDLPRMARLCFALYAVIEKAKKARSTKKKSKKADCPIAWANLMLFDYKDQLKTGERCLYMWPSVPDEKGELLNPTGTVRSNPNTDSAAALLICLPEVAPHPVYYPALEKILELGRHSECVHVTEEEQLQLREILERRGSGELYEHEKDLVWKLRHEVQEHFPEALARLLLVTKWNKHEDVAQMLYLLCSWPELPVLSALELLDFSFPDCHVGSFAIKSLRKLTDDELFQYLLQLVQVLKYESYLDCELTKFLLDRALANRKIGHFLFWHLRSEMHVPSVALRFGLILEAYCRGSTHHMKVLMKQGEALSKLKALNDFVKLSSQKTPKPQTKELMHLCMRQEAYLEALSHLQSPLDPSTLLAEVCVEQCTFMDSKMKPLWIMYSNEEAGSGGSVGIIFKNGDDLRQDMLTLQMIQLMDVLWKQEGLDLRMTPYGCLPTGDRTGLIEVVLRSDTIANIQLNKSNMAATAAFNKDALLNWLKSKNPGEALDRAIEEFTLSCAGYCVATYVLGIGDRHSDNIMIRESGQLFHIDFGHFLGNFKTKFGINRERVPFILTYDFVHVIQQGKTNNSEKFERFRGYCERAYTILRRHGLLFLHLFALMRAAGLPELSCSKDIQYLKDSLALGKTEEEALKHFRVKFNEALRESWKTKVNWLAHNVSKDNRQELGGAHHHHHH
The assay is described as follows: PI3K KinaseGlo assay, PI3Kδ. Particulars: 10 nM enzyme, 1 μM ATP, 30 mins, room temperature, read-out: PI3Kd/IC50.

Assay [4] has as its target T4, PI3Kα (Homo sapiens, UniProt P42336).
T4 construct: p110α(21-1068)-His; made in house; host or cells: baculovirus, Tn5 insect cells
Briefly: PI3K KinaseGlo assay, PI3Kα.

Setting [5] is: KinaseGlo, 25 nM enzyme, 1 μM ATP, 30 mins, room temperature, read-out: PI3Kb/IC50.
Where [6] appears, read: KinaseGlo, 10 nM enzyme, 1 μM ATP, 30 mins, room temperature, read-out: PI3Ka/IC50.
[7] abbreviates: KinaseGlo, 10 nM enzyme, 1 μM ATP, 30 mins, room temperature.

pIC50: −log10 of the molar value. Like-named read-outs stand apart in the source and are kept apart here.

T4 sequence (P42336 with tags, fused parts or gaps): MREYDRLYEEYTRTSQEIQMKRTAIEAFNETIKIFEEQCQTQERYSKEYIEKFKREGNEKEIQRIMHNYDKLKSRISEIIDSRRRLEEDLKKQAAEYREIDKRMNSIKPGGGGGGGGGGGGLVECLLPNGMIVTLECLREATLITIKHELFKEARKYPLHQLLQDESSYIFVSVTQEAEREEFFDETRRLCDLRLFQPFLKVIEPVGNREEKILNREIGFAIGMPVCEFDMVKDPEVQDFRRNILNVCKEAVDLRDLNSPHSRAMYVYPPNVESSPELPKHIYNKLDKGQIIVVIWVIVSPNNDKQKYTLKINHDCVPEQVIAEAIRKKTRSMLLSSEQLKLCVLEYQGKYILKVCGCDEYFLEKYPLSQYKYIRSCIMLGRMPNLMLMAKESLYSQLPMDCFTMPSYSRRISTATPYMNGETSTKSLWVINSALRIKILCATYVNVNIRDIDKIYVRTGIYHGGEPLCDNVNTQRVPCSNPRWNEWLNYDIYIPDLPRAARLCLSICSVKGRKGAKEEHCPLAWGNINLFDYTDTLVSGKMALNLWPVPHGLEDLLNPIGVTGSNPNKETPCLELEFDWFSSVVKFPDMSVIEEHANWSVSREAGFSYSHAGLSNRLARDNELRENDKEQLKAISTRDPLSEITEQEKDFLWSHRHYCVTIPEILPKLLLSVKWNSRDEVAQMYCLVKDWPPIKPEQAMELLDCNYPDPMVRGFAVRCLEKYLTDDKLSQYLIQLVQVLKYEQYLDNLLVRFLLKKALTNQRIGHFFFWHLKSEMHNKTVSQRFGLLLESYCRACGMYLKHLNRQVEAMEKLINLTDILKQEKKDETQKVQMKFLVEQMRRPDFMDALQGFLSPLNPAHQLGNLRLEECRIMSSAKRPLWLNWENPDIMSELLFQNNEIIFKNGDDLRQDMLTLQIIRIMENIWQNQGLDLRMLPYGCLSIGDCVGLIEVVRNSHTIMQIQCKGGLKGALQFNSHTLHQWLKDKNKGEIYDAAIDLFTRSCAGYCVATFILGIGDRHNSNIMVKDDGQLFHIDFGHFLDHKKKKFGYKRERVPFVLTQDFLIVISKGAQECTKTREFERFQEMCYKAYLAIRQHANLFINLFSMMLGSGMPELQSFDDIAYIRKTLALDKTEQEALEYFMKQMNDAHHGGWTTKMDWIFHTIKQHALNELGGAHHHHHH
T1 sequence (P42338 with tags, fused parts or gaps): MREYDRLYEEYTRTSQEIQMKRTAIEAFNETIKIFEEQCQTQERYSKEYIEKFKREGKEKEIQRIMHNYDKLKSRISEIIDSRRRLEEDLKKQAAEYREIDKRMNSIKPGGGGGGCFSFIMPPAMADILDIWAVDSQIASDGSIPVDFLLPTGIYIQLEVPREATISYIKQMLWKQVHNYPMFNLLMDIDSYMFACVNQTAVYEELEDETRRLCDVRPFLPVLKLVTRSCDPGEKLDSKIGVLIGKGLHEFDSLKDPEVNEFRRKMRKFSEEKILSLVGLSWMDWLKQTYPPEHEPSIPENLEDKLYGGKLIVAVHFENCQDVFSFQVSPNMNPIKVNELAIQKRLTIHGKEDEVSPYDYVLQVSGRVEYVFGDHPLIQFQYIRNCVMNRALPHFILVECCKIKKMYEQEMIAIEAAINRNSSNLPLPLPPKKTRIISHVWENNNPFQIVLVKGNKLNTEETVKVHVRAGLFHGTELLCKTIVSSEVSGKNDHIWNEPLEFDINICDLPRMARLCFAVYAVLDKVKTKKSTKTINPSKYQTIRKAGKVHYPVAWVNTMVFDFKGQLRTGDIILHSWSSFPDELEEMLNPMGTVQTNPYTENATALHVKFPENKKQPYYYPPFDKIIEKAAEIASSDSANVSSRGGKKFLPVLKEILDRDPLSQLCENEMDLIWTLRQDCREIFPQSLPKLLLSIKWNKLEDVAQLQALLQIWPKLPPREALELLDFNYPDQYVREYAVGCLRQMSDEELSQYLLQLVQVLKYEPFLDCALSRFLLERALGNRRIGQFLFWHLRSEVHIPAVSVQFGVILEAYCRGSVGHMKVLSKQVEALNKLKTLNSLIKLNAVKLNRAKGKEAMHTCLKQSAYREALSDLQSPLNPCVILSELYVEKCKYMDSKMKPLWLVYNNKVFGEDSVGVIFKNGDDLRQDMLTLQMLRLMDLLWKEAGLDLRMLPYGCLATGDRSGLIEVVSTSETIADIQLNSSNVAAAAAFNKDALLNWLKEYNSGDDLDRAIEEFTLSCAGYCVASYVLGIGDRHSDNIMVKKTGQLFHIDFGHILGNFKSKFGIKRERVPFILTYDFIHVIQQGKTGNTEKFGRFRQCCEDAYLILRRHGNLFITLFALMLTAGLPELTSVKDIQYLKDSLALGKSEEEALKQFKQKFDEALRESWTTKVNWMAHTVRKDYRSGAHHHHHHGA

As for `Cc1nc(NC(=O)N2CCC[C@H]2C(N)=O)sc1-c1ccnc(C(C)(C)C)c1` [Example 1, (S)-Pyrrolidine-1,2-dicarboxylic acid 2-amide 1-{[5-(2-tert-butyl-pyridin-4-yl)-4-methyl-thiazol-2-yl]-amide}], the results for the pIC50 in assay [1] (setting [5]), in assay [2] and in assay [3] were 5.35, 6.17 and 6.01, respectively.

In the case of `Cc1nc(NC(=O)N2CCC[C@H]2C(N)=O)sc1-c1ccnc(-c2ccccc2F)c1` [Example 3, (S)-Pyrrolidine-1,2-dicarboxylic acid 2-amide 1-({5-[2-(2-fluoro-phenyl)-pyridin-4-yl]-4-methyl-thiazol-2-yl}-amide)], the pIC50 in assay [1] (setting [5]) was 5.64; in assay [2] it was 6.44; in assay [3], 6.36; in assay [4] (setting [6]), 7.17.

Turning to `CC(C)(c1cc(-c2cnc(NC(=O)N3CCC[C@H]3C(N)=O)s2)ccn1)C(F)(F)F` [Example 12, (S)-Pyrrolidine-1,2-dicarboxylic acid 2-amide 1-({5-[2-(2,2,2-trifluoro-1,1-dimethyl-ethyl)-pyridin-4-yl]-thiazol-2-yl}-amide)], the pIC50 in assay [1] (setting [5]) is 5.41; in assay [2], 6.45; in assay [3] it was 6.71; in assay [4], 8.00.

As to `NC(=O)[C@@H]1CCCN1C(=O)Nc1ncc(-c2ccnc(C3(C(F)(F)F)CCC3)c2)s1` [Example 13, (S)-Pyrrolidine-1,2-dicarboxylic acid 2-amide 1-({5-[2-(1-trifluoromethyl-cyclobutyl)-pyridin-4-yl]-thiazol-2-yl}-amide)], the pIC50 in assay [1] (setting [5]) was 5.35; in assay [2], 6.74; in assay [3], 6.79.

Regarding `Cc1nc(NC(=O)N2CCC[C@H]2C(N)=O)sc1-c1ccnc(C2(C#N)CC2)c1` [Example 18, (S)-Pyrrolidine-1,2-dicarboxylic acid 2-amide 1-({5-[2-(1-cyano-cyclopropyl)pyridin-4-yl]-4-methyl-thiazol-2-yl}-amide)], the pIC50 was 5.38 in assay [1] (setting [5]), 6.21 in assay [2] and 6.27 in assay [3]. Besides, the PI3Ka/IC50 in assay [4] (setting [7]) was 0.019 umol I-1.

`COc1ccc(C(C)(C)c2cc(-c3sc(NC(=O)N4CCC[C@H]4C(N)=O)nc3C)ccn2)cc1` [Example 27, (S)-Pyrrolidine-1,2-dicarboxylic acid 2-amide 1-[(5-{2-[1-(4-methoxy-phenyl)-1-methyl-ethyl]-pyridin-4-yl}-4-methyl-thiazol-2-yl)-amide]]: the pIC50 was 5.28 in assay [1] (setting [5]), 5.81 in assay [2], 6.57 in assay [3] and 7.09 in assay [4] (setting [6]).

`COc1ccc(C2(c3cc(-c4sc(NC(=O)N5CCC[C@H]5C(N)=O)nc4C)ccn3)CC2)cc1` [Example 29, (S)-Pyrrolidine-1,2-dicarboxylic acid 2-amide 1-[(5-{2-[1-(4-methoxy-phenyl)-cyclopropyl]-pyridin-4-yl}-4-methyl-thiazol-2-yl)-amide]]: the pIC50 in assay [1] (setting [5]) was 5.21; in assay [2], 6.16; in assay [3], 6.09; in assay [4] (setting [6]), 7.25.

For `CC(C)(c1cc(-c2sc(NC(=O)N3CCC[C@H]3C(N)=O)nc2Cl)ccn1)C(F)(F)F` [Example 37, (S)-Pyrrolidine-1,2-dicarboxylic acid 2-amide 1-({4-chloro-5-[2-(2,2,2-trifluoro-1,1-dimethyl-ethyl)-pyridin-4-yl]-thiazol-2-yl}-amide)], the values for the pIC50 in assay [1] (setting [5]), in assay [2] and in assay [3] were 5.26, 5.35 and 6.41, respectively. Moreover, in assay [4] (setting [7]), the PI3Ka/IC50 amounted to 0.039 umol I-1.

With `Cc1nc(NC(=O)N2CCC[C@H]2C(N)=O)sc1-c1ccnc(C2(C)CC2)n1` [Example 42, (S)-Pyrrolidine-1,2-dicarboxylic acid 2-amide 1-({4-methyl-5-[2-(1-methylcyclopropyl)-pyrimidin-4-yl]-thiazol-2-yl}-amide)], the results for the pIC50 in assay [1], in assay [2] and in assay [3] were 5.50, 6.07 and 6.54, respectively.

Consider `Cc1nc(NC(=O)N2CCC[C@H]2C(N)=O)sc1-c1ccnc(Cc2c(Cl)cccc2Cl)n1` [Example 47, (S)-Pyrrolidine-1,2-dicarboxylic acid 2-amide 1-({5-[2-(2,6-dichloro-benzyl)pyrimidin-4-yl]-4-methyl-thiazol-2-yl}-amide)], for which the pIC50 is 5.54 in assay [1] (setting [5]), 5.73 in assay [2], 6.81 in assay [3] and 7.03 in assay [4] (setting [6]).

In the case of `Cc1nc(NC(=O)N2CCC[C@H]2C(N)=O)sc1-c1ccnc(-c2ccccc2F)n1` [Example 51, (S)-Pyrrolidine-1,2-dicarboxylic acid 2-amide 1-({5-[2-(2-fluoro-phenyl)pyrimidin-4-yl]-4-methyl-thiazol-2-yl}-amide)], the pIC50 in assay [1] (setting [5]) was 5.05; in assay [2], 5.46; in assay [3], 6.16; in assay [4] (setting [6]), 6.95.

Values taken from patent publication US8710085B2, “Pyrrolidine-1,2-dicarboxamide derivatives” (Novartis AG, priority 2008, dated 2014).
